In patent US5395947A, “Platinum(II) complex and processes for preparing the same” (Sunkyong Industries, Ltd., priority 1991, dated 1995):

How the values were obtained:
[1] = test system: murine leukemia L1210 cells; assay: Growth inhibition test on cultured murine leukemia L1210 cells; format: cell-based; conditions: 48 hours, 37° C., Trypan blue viability
Procedure: 1. Growth inhibition test on cultured murine leukemia L1210 cells
Murine leukemia L1210 cells(1×10^5) were treated with various concentrations of the compounds prepared in the above examples in RPMI 1640 medium supplemented with 10% fetal calf serum, and cultured in a 5% CO2 humidified incubator at 37° C. for 48 hours. Their viability, estimated by staining with 0.17% Trypan blue, was compared with that of control cells cultured in the identical medium without the compounds.

[2] = test system: murine leukemia L1210; assay: Antitumor activity test on murine leukemia L1210 in vivo; parameters: species or system male BDF1 mice; conditions: days 1, 5, 9
Procedure: 2. Antitumor activity test on murine leukemia L1210 in vivo
Murine leukemia L1210 cells were maintained in the peritoneal cavities of 6-week-old male DBA/2 mice by weekly transfer in accordance with the procedure described in cancer chemotherapy Reports, Part 3, 3(2), 7 (1972). Specifically, 1×10^6 leukemia cells were inoculated into the abdominal cavities of 6-week-old male BDF1 mice weighing 21±3 g on day 0. Each treatment group consisted of seven mice. The test compounds were dissolved or suspended in 0.5% carboxymethyl cellulose(CMC)solution (in water) and were administered intraperitoneally on days 1, 5, and 9 relative to the tumor inoculation.
Thirty mice of 6-week-old male BDF1 weighing 21±3 g were used as the control group, which were injected with 0.5% CMC solution only in the same manner as above.
Anti-tumor activities of the compounds were evaluated in terms of the T/C % values calculated from the mean survival time(T) of the compound-treated group over that(C) of the control group. [formula]

[3] = Test for water solubility; format: physicochemical; conditions: water
Description: 3. Test for water solubility
A standard plot of UV absorbance(220 nm) vs. concentration was made; and employed to determine water-solubility.
The mixture was then passed through a 0.45 micron disposable membrane filter before dilution and UV measurement.

[4] = test system: ICR mice; assay: Acute toxicity test; format: in vivo; parameters: Lethality: unit not given here; conditions: for Lethality: 10080 min
Procedure: 7-week-old ICR mice(male: 34±2 g; female: 31±2 g) were fed with solid food and water under the condition of 23±1° C. temperature and 65±5% humidity before the test.
Each treatment group consisted of 6 mice. The test compounds were administered intraperitoneally.
For 7 days after the administration, the appearance and the fate of the tested animals were recorded. The dead animals were subjected to autopsy and their visible pathological changes were observed. Their viscerals were stored in 10% formalin solution.

NC[C@H]1OC2(CCCC2)O[C@@H]1CN.O=C1C[O][Pt][O]1 [Example 3, (glycolato-O,O')[(4R,5R)-4,5-bis(aminomethyl)-1,3-dioxolane-2-spiro-1'-cyclopentane]platinum (II)]
IC50 (concentration required for 50% inhibition of growth) [1]: 0.10 µg/mL | T/C (%) ([2]; 3.1 mg/kg i.p.): 154% | T/C (%) ([2]; 6.2 mg/kg i.p.): 161% | T/C (%) ([2]; 12.5 mg/kg i.p.): 295% | T/C (%) ([2]; 25 mg/kg i.p.): toxic | T/C (%) ([2]; 50 mg/kg i.p.): toxic | Solubility in water [3]: 5800 µg/mL | Number of dead mice for 7 days ([4]; female, 25.0 mg/kg i.p.): 0/6 | Number of dead mice, 1st day ([4]; female, 25.0 mg/kg i.p.): 0/6 | Number of dead mice for 7 days ([4]; female, 32.5 mg/kg i.p.): 0/6 | Number of dead mice, 1st day ([4]; female, 32.5 mg/kg i.p.): 0/6 | Number of dead mice for 7 days ([4]; female, 42.3 mg/kg i.p.): 2/6 | Number of dead mice, 1st day ([4]; female, 42.3 mg/kg i.p.): 0/6 | Number of dead mice, 4th day ([4]; female, 42.3 mg/kg i.p.): 1/6 | Number of dead mice, 5th day ([4]; female, 42.3 mg/kg i.p.): 1/5 | Lethality ([4]; female, 42.3 mg/kg i.p.): 33.3 | Number of dead mice for 7 days ([4]; female, 55.0 mg/kg i.p.): 5/6 | Number of dead mice, 1st day ([4]; female, 55.0 mg/kg i.p.): 0/6 | Number of dead mice, 3rd day ([4]; female, 55.0 mg/kg i.p.): 4/6 | Number of dead mice, 4th day ([4]; female, 55.0 mg/kg i.p.): 1/2 | Lethality ([4]; female, 55.0 mg/kg i.p.): 83.2 | Number of dead mice for 7 days ([4]; female, 71.4 mg/kg i.p.): 6/6 | Number of dead mice, 1st day ([4]; female, 71.4 mg/kg i.p.): 0/6 | Number of dead mice, 3rd day ([4]; female, 71.4 mg/kg i.p.): 4/6 | Number of dead mice, 4th day ([4]; female, 71.4 mg/kg i.p.): 2/2 | Lethality ([4]; female, 71.4 mg/kg i.p.): 100.0 | Number of dead mice for 7 days ([4]; male, 25.0 mg/kg i.p.): 0/6 | Number of dead mice, 1st day ([4]; male, 25.0 mg/kg i.p.): 0/6 | Number of dead mice for 7 days ([4]; male, 32.5 mg/kg i.p.): 0/6 | Number of dead mice, 1st day ([4]; male, 32.5 mg/kg i.p.): 0/6 | Number of dead mice, 4th day ([4]; male, 32.5 mg/kg i.p.): 1/6 | Number of dead mice for 7 days ([4]; male, 42.3 mg/kg i.p.): 2/6 | Number of dead mice, 1st day ([4]; male, 42.3 mg/kg i.p.): 0/6 | Number of dead mice, 4th day ([4]; male, 42.3 mg/kg i.p.): 1/6 | Lethality ([4]; male, 42.3 mg/kg i.p.): 33.3 | Number of dead mice for 7 days ([4]; male, 55.0 mg/kg i.p.): 6/6 | Number of dead mice, 1st day ([4]; male, 55.0 mg/kg i.p.): 0/6 | Number of dead mice, 3rd day ([4]; male, 55.0 mg/kg i.p.): 4/6 | Number of dead mice, 4th day ([4]; male, 55.0 mg/kg i.p.): 1/2 | Number of dead mice, 5th day ([4]; male, 55.0 mg/kg i.p.): 1/1 | Lethality ([4]; male, 55.0 mg/kg i.p.): 100.0 | Number of dead mice for 7 days ([4]; male, 71.4 mg/kg i.p.): 6/6 | Number of dead mice, 1st day ([4]; male, 71.4 mg/kg i.p.): 0/6 | Number of dead mice, 3rd day ([4]; male, 71.4 mg/kg i.p.): 4/6 | Number of dead mice, 4th day ([4]; male, 71.4 mg/kg i.p.): 2/2 | Lethality ([4]; male, 71.4 mg/kg i.p.): 100.0

NC[C@H]1OC2(CCCCC2)O[C@@H]1CN.O=C1C[O][Pt][O]1 [Example 4, (glycolato-O,O'){cyclohexanespiro-2'-[(4'R,5'R)-4',5'-bis(aminomethyl)-1',3'-dioxolane]}-platinum(II)]
IC50 (concentration required for 50% inhibition of growth) [1]: 0.08 µg/mL | T/C (%) ([2]; 3.1 mg/kg i.p.): 102% | T/C (%) ([2]; 6.2 mg/kg i.p.): 146% | T/C (%) ([2]; 12.5 mg/kg i.p.): 233% | T/C (%) ([2]; 25 mg/kg i.p.): 231% | T/C (%) ([2]; 50 mg/kg i.p.): toxic | Solubility in water [3]: 2900 µg/mL | Number of dead mice for 7 days ([4]; female, 25.0 mg/kg i.p.): 0/6 | Number of dead mice, 1st day ([4]; female, 25.0 mg/kg i.p.): 0/6 | Number of dead mice for 7 days ([4]; female, 32.5 mg/kg i.p.): 0/6 | Number of dead mice, 1st day ([4]; female, 32.5 mg/kg i.p.): 0/6 | Number of dead mice for 7 days ([4]; female, 42.3 mg/kg i.p.): 0/6 | Number of dead mice, 1st day ([4]; female, 42.3 mg/kg i.p.): 0/6 | Number of dead mice for 7 days ([4]; female, 55.0 mg/kg i.p.): 2/6 | Number of dead mice, 1st day ([4]; female, 55.0 mg/kg i.p.): 0/6 | Number of dead mice, 3rd day ([4]; female, 55.0 mg/kg i.p.): 1/6 | Number of dead mice, 4th day ([4]; female, 55.0 mg/kg i.p.): 1/5 | Lethality ([4]; female, 55.0 mg/kg i.p.): 33.3 | Number of dead mice for 7 days ([4]; female, 71.4 mg/kg i.p.): 4/6 | Number of dead mice, 1st day ([4]; female, 71.4 mg/kg i.p.): 0/6 | Number of dead mice, 2nd day ([4]; female, 71.4 mg/kg i.p.): 2/6 | Number of dead mice, 3rd day ([4]; female, 71.4 mg/kg i.p.): 1/4 | Number of dead mice, 4th day ([4]; female, 71.4 mg/kg i.p.): 1/3 | Lethality ([4]; female, 71.4 mg/kg i.p.): 66.7 | Number of dead mice for 7 days ([4]; male, 25.0 mg/kg i.p.): 0/6 | Number of dead mice, 1st day ([4]; male, 25.0 mg/kg i.p.): 0/6 | Number of dead mice for 7 days ([4]; male, 32.5 mg/kg i.p.): 0/6 | Number of dead mice, 1st day ([4]; male, 32.5 mg/kg i.p.): 0/6 | Number of dead mice for 7 days ([4]; male, 42.3 mg/kg i.p.): 0/6 | Number of dead mice, 1st day ([4]; male, 42.3 mg/kg i.p.): 0/6 | Number of dead mice for 7 days ([4]; male, 55.0 mg/kg i.p.): 3/6 | Number of dead mice, 1st day ([4]; male, 55.0 mg/kg i.p.): 0/6 | Number of dead mice, 2nd day ([4]; male, 55.0 mg/kg i.p.): 2/6 | Number of dead mice, 3rd day ([4]; male, 55.0 mg/kg i.p.): 1/4 | Lethality ([4]; male, 55.0 mg/kg i.p.): 50.0 | Number of dead mice for 7 days ([4]; male, 71.4 mg/kg i.p.): 4/6 | Number of dead mice, 1st day ([4]; male, 71.4 mg/kg i.p.): 0/6 | Number of dead mice, 2nd day ([4]; male, 71.4 mg/kg i.p.): 3/6 | Number of dead mice, 3rd day ([4]; male, 71.4 mg/kg i.p.): 1/3 | Lethality ([4]; male, 71.4 mg/kg i.p.): 66.7
